Literature values in patent publication US20030013726A1 (priority 2000, published 2003).

System: patients with disorders of initiating sleep

CCN(C(C)=O)c1cccc(-c2ccnc3c(C#N)cnn23)c1 [zaleplon]
sleep stages 3 and 4 (delta sleep and deep sleep) (clinical studies): not impaired | effectiveness for patients with disorders of initiating sleep (clinical study on more than 3 700 patients in the USA, Canada and Europe, including elderly people 65-85 years): very effective | sleep latency estimated both by polysomnography and subjectively (compared with placebo, clinical studies): significantly reduced
